Reference: PMC5218480 (PLoS ONE, 2017)

Test system: MV-4-11 cells
Experiment: Gene expression microarray analysis (Affymetrix PrimeView) and GSEA
Format: cell-based, human
Parameters: RFU PODN (11730768_x_at) / Fold change /veh PODN (11730768_x_at) / RFU LINC00158 (11744669_a_at) / Fold change /veh LINC00158 (11744669_a_at) / RFU DUSP10 (11751237_a_at) / Fold change /veh DUSP10 (11751237_a_at) / RFU ID3 (11757404_x_at) / Fold change /veh ID3 (11757404_x_at) / RFU PLEKHG5 (11737974_s_at) / Fold change /veh PLEKHG5 (11737974_s_at) / RFU LRRC4B (11730491_at) / Fold change /veh LRRC4B (11730491_at) / RFU GIMAP4 (11747438_a_at) / Fold change /veh GIMAP4 (11747438_a_at) / RFU KRT8 (11758183_x_at) / Fold change /veh KRT8 (11758183_x_at) / RFU CNN1 (11734310_a_at) / Fold change /veh CNN1 (11734310_a_at) / RFU VPS37D (11726825_at) / Fold change /veh VPS37D (11726825_at) / RFU C10orf10 (11716522_x_at) / Fold change /veh C10orf10 (11716522_x_at) / RFU KIR2DL2 /// KIR2DL4 /// KIR2DL5A /// KIR2DL5B /// KIR2DS1 /// KIR2DS2 /// KIR2DS3 /// KIR2DS4 /// KIR3DL3 /// KIR3DL3 /// KIR3DS1 (11738374_at) / Fold change /veh KIR2DL2 /// KIR2DL4 /// KIR2DL5A /// KIR2DL5B /// KIR2DS1 /// KIR2DS2 /// KIR2DS3 /// KIR2DS4 /// KIR3DL3 /// KIR3DL3 /// KIR3DS1 (11738374_at) / RFU C1QL1 (11718748_at) / Fold change /veh C1QL1 (11718748_at) / RFU TMPRSS4 (11747572_a_at) / Fold change /veh TMPRSS4 (11747572_a_at) / RFU HAMP (11756126_x_at) / Fold change /veh HAMP (11756126_x_at) / RFU RNFT2 (11725882_a_at) / Fold change /veh RNFT2 (11725882_a_at) / RFU NR4A2 (11747474_a_at) / Fold change /veh NR4A2 (11747474_a_at) / RFU ABCC12 (11746883_a_at) / Fold change /veh ABCC12 (11746883_a_at) / RFU TMEM136 (11760407_x_at) / Fold change /veh TMEM136 (11760407_x_at) / RFU CLDN22 /// WWC2 (11732394_at) / Fold change /veh CLDN22 /// WWC2 (11732394_at) / RFU HLA-DPB1 (11760878_x_at) / Fold change /veh HLA-DPB1 (11760878_x_at) / RFU SPINT1 (11716480_a_at) / Fold change /veh SPINT1 (11716480_a_at) / RFU GAP43 (11754022_s_at) / Fold change /veh GAP43 (11754022_s_at) / RFU A4GNT (11735810_at) / Fold change /veh A4GNT (11735810_at) / RFU PRB3 (11715151_x_at) / Fold change /veh PRB3 (11715151_x_at) / RFU TUBB4B (11761932_at) / Fold change /veh TUBB4B (11761932_at) / RFU CAPN14 (11732068_a_at) / Fold change /veh CAPN14 (11732068_a_at) / RFU TMCC2 (11721928_a_at) / Fold change /veh TMCC2 (11721928_a_at) / RFU IRGQ (11745062_a_at) / Fold change /veh IRGQ (11745062_a_at) / RFU FAM174B (11720279_a_at) / Fold change /veh FAM174B (11720279_a_at) / RFU TMPRSS4 (11748680_a_at) / Fold change /veh TMPRSS4 (11748680_a_at) / RFU FAM212B (11763350_a_at) / Fold change /veh FAM212B (11763350_a_at) / RFU PLEKHG5 (11743358_a_at) / Fold change /veh PLEKHG5 (11743358_a_at) / RFU ZSCAN30 (11745921_a_at) / Fold change /veh ZSCAN30 (11745921_a_at) / RFU CMKLR1 (11741424_a_at) / Fold change /veh CMKLR1 (11741424_a_at) / RFU LOC101060620 /// MAPK8IP1 (11723275_at) / Fold change /veh LOC101060620 /// MAPK8IP1 (11723275_at) / RFU SPTSSB (11747773_x_at) / Fold change /veh SPTSSB (11747773_x_at) / RFU PRSS12 (11739890_at) / Fold change /veh PRSS12 (11739890_at) / RFU BIN1 (11741810_x_at) / Fold change /veh BIN1 (11741810_x_at) / RFU WNT11 (11732464_a_at) / Fold change /veh WNT11 (11732464_a_at) / RFU C10orf10 (11716521_a_at) / Fold change /veh C10orf10 (11716521_a_at) / RFU C5orf56 (11738089_at) / Fold change /veh C5orf56 (11738089_at) / RFU CYB561 (11721691_x_at) / Fold change /veh CYB561 (11721691_x_at) / RFU ANKRD19P (11752326_a_at) / Fold change /veh ANKRD19P (11752326_a_at) / RFU OR2T12 /// OR2T33 /// OR2T8 (11738714_s_at) / Fold change /veh OR2T12 /// OR2T33 /// OR2T8 (11738714_s_at) / RFU VCAN (11748164_a_at) / Fold change /veh VCAN (11748164_a_at) / RFU JSRP1 (11732532_at) / Fold change /veh JSRP1 (11732532_at) / RFU KRTAP10-11 (11738290_x_at) / Fold change /veh KRTAP10-11 (11738290_x_at) / RFU MYO3A (11730013_a_at) / Fold change /veh MYO3A (11730013_a_at) / RFU EBF3 (11725865_a_at) / Fold change /veh EBF3 (11725865_a_at) / RFU CAMK2N1 (11719241_x_at) / Fold change /veh CAMK2N1 (11719241_x_at) / RFU C5orf56 (11738088_a_at) / Fold change /veh C5orf56 (11738088_a_at) / RFU OLFML3 (11715873_a_at) / Fold change /veh OLFML3 (11715873_a_at) / RFU LOC100653217 /// NTM (11731650_a_at) / Fold change /veh LOC100653217 /// NTM (11731650_a_at) / RFU MAPK11 (11762145_a_at) / Fold change /veh MAPK11 (11762145_a_at) / RFU FIZ1 (11724087_x_at) / Fold change /veh FIZ1 (11724087_x_at) / RFU OASL (11726364_x_at) / Fold change /veh OASL (11726364_x_at) / RFU SOX15 (11748057_x_at) / Fold change /veh SOX15 (11748057_x_at) / RFU CD79A (11719716_a_at) / Fold change /veh CD79A (11719716_a_at) / RFU HIST1H1D (11736915_at) / Fold change /veh HIST1H1D (11736915_at) / RFU CASKIN2 (11723855_a_at) / Fold change /veh CASKIN2 (11723855_a_at) / RFU LOC730098 (11760151_x_at) / Fold change /veh LOC730098 (11760151_x_at) / RFU OR4N2 (11742367_at) / Fold change /veh OR4N2 (11742367_at) / RFU PRRT2 (11749266_a_at) / Fold change /veh PRRT2 (11749266_a_at) / RFU SNX32 (11753110_a_at) / Fold change /veh SNX32 (11753110_a_at) / RFU CDHR5 (11726645_a_at) / Fold change /veh CDHR5 (11726645_a_at) / RFU RCAN1 (11760418_a_at) / Fold change /veh RCAN1 (11760418_a_at) / RFU FAM167A (11723789_a_at) / Fold change /veh FAM167A (11723789_a_at) / RFU FAM26E (11764081_at) / Fold change /veh FAM26E (11764081_at) / RFU ISYNA1 (11749810_s_at) / Fold change /veh ISYNA1 (11749810_s_at) / RFU ACY1 (11761880_at) / Fold change /veh ACY1 (11761880_at) / RFU 11764098_at / Fold change /veh 11764098_at / RFU SAMD14 (11745864_x_at) / Fold change /veh SAMD14 (11745864_x_at) / RFU NPB (11741838_a_at) / Fold change /veh NPB (11741838_a_at) / RFU TMPRSS6 (11731388_a_at) / Fold change /veh TMPRSS6 (11731388_a_at) / RFU KRTAP10-2 (11738614_at) / Fold change /veh KRTAP10-2 (11738614_at) / RFU ARHGAP8 /// PRR5-ARHGAP8 (11727945_x_at) / Fold change /veh ARHGAP8 /// PRR5-ARHGAP8 (11727945_x_at) / RFU KRTAP5-7 /// NADSYN1 (11734609_at) / Fold change /veh KRTAP5-7 /// NADSYN1 (11734609_at) / RFU RASL12 (11751679_a_at) / Fold change /veh RASL12 (11751679_a_at) / RFU CDKN2B (11736163_a_at) / Fold change /veh CDKN2B (11736163_a_at) / RFU PRF1 (11729649_at) / Fold change /veh PRF1 (11729649_at) / RFU, ZNF638 /// ZNF638-IT1 / Fold change vs veh, ZNF638 /// ZNF638-IT1 / RFU, PANK3 / Fold change vs veh, PANK3 / RFU, SH3YL1 / Fold change vs veh, SH3YL1 / RFU, ZEB2 / Fold change vs veh, ZEB2 / RFU, NRIP1 / Fold change vs veh, NRIP1 / RFU, PTTG1IP / Fold change vs veh, PTTG1IP / RFU, CAPN2 / Fold change vs veh, CAPN2 / RFU, MED14 / Fold change vs veh, MED14 / RFU, SNORA58 / Fold change vs veh, SNORA58 / RFU, C1orf63 / Fold change vs veh, C1orf63 / RFU, LRRFIP1 / Fold change vs veh, LRRFIP1 / RFU, NDUFAF7 / Fold change vs veh, NDUFAF7 / RFU, SLC12A2 / Fold change vs veh, SLC12A2 / RFU, IBTK / Fold change vs veh, IBTK / RFU, ESF1 / Fold change vs veh, ESF1 / Fold change vs veh, TMEM50B / RFU, TAOK1 / Fold change vs veh, TAOK1 / RFU, ACBD3 / Fold change vs veh, ACBD3 / RFU, TMA16 / Fold change vs veh, TMA16 / RFU, RWDD3 / Fold change vs veh, RWDD3 / RFU, BCAT1 / Fold change vs veh, BCAT1 / RFU, EDEM3 / Fold change vs veh, EDEM3 / RFU, TMEM33 / Fold change vs veh, TMEM33 / RFU, WDR75 / Fold change vs veh, WDR75 / RFU, AHCTF1 / Fold change vs veh, AHCTF1 / RFU, TFRC / Fold change vs veh, TFRC / RFU, ZDHHC17 / Fold change vs veh, ZDHHC17 / RFU, NOM1 / Fold change vs veh, NOM1 / RFU, ARL8B / Fold change vs veh, ARL8B / RFU, ZBTB11 / Fold change vs veh, ZBTB11 / RFU, TAMM41 / Fold change vs veh, TAMM41 / RFU, KIAA1704 /// LOC100996395 / Fold change vs veh, KIAA1704 /// LOC100996395 / RFU, ING1 / Fold change vs veh, ING1 / RFU, TRMT61B / Fold change vs veh, TRMT61B / RFU, FUBP3 / Fold change vs veh, FUBP3 / RFU, TP53 / Fold change vs veh, TP53 / RFU, TNKS2 / Fold change vs veh, TNKS2 / RFU, ZFP14 / Fold change vs veh, ZFP14 / RFU, ACTR2 / Fold change vs veh, ACTR2 / RFU, PPP3R1 / Fold change vs veh, PPP3R1 / RFU, PIK3R1 / Fold change vs veh, PIK3R1 / RFU, HNRNPA1 / Fold change vs veh, HNRNPA1 / RFU, RNF170 / Fold change vs veh, RNF170 / RFU, ZNF28 / Fold change vs veh, ZNF28 / RFU, RNGTT / Fold change vs veh, RNGTT / RFU, OGT / Fold change vs veh, OGT / RFU, BRD1 / Fold change vs veh, BRD1 / RFU, MARS / Fold change vs veh, MARS / RFU, ZNF655 / Fold change vs veh, ZNF655 / RFU, FAHD1 / Fold change vs veh, FAHD1 / RFU, BDP1 / Fold change vs veh, BDP1 / RFU, LRRCC1 / Fold change vs veh, LRRCC1 / RFU, ARID1A / Fold change vs veh, ARID1A / RFU, ZNF146 / Fold change vs veh, ZNF146 / RFU, ZNF330 / Fold change vs veh, ZNF330 / RFU, GPN3 / Fold change vs veh, GPN3 / RFU, C9orf123 / Fold change vs veh, C9orf123 / RFU, N4BP2L2 / Fold change vs veh, N4BP2L2 / RFU, ARFIP1 / Fold change vs veh, ARFIP1 / RFU, FAM179B / Fold change vs veh, FAM179B / RFU, BCL10 / Fold change vs veh, BCL10 / RFU, UHRF1BP1L / Fold change vs veh, UHRF1BP1L / RFU, BET1 / Fold change vs veh, BET1 / RFU, CNOT2 / Fold change vs veh, CNOT2 / RFU, ZNF268 / Fold change vs veh, ZNF268 / Fold change vs veh, ZNF507 / RFU, DGCR2 / Fold change vs veh, DGCR2 / RFU, WDSUB1 / Fold change vs veh, WDSUB1 / Fold change vs veh, HSP90B1 /// MIR3652 / RFU, ADSS / Fold change vs veh, ADSS / RFU, GK / Fold change vs veh, GK / RFU, ZNF148 / Fold change vs veh, ZNF148 / RFU, TAF9 / Fold change vs veh, TAF9 / RFU, SLC1A5 / Fold change vs veh, SLC1A5 / RFU, SLMO2 / Fold change vs veh, SLMO2 / RFU, ABCC4 / Fold change vs veh, ABCC4 / RFU, LOC101060439 /// RAP1B / Fold change vs veh, LOC101060439 /// RAP1B / RFU, RFX7 / Fold change vs veh, RFX7 / RFU, GTPBP10 / Fold change vs veh, GTPBP10 / RFU, CNEP1R1 / Fold change vs veh, CNEP1R1 / RFU, BIVM-ERCC5 /// ERCC5 / Fold change vs veh, BIVM-ERCC5 /// ERCC5 / RFU, ILF3 / Fold change vs veh, ILF3 / RFU 11762660_at / Fold change /veh 11762660_at / RFU VCAN (11757783_s_at) / Fold change /veh VCAN (11757783_s_at) / RFU DDX43 (11728927_at) / Fold change /veh DDX43 (11728927_at) / RFU KRT8 (11758188_x_at) / Fold change /veh KRT8 (11758188_x_at) / RFU NKD1 (11759106_at) / Fold change /veh NKD1 (11759106_at) / RFU SRD5A1 (11742802_a_at) / Fold change /veh SRD5A1 (11742802_a_at) / RFU TPSAB1 /// TPSB2 (11721975_s_at) / Fold change /veh TPSAB1 /// TPSB2 (11721975_s_at) / RFU GSTM3 (11746129_a_at) / Fold change /veh GSTM3 (11746129_a_at) / RFU IL23R (11737362_x_at) / Fold change /veh IL23R (11737362_x_at) / RFU TMEM51 (11727254_a_at) / Fold change /veh TMEM51 (11727254_a_at) / RFU PIWIL2 (11732686_x_at) / Fold change /veh PIWIL2 (11732686_x_at) / RFU ORM1 (11744905_x_at) / Fold change /veh ORM1 (11744905_x_at) / RFU CCDC152 (11743942_at) / Fold change /veh CCDC152 (11743942_at) / RFU ECM1 (11717891_a_at) / Fold change /veh ECM1 (11717891_a_at) / RFU IL23R (11748794_a_at) / Fold change /veh IL23R (11748794_a_at) / RFU TNFAIP8L3 (11732012_x_at) / Fold change /veh TNFAIP8L3 (11732012_x_at) / RFU MBOAT4 (11741988_at) / Fold change /veh MBOAT4 (11741988_at) / RFU 11764193_at / Fold change /veh 11764193_at / RFU TMEM53 (11763286_at) / Fold change /veh TMEM53 (11763286_at) / RFU MAGEB2 (11727129_at) / Fold change /veh MAGEB2 (11727129_at) / RFU TMEM200A (11744735_a_at) / Fold change /veh TMEM200A (11744735_a_at) / RFU CCDC152 (11751479_a_at) / Fold change /veh CCDC152 (11751479_a_at) / RFU FAM211A (11726209_a_at) / Fold change /veh FAM211A (11726209_a_at) / RFU RGS16 (11746705_a_at) / Fold change /veh RGS16 (11746705_a_at) / RFU VCAN (11755009_s_at) / Fold change /veh VCAN (11755009_s_at) / RFU RHOB (11743442_s_at) / Fold change /veh RHOB (11743442_s_at) / RFU RGS16 (11720943_a_at) / Fold change /veh RGS16 (11720943_a_at) / RFU RGS16 (11720944_at) / Fold change /veh RGS16 (11720944_at) / RFU, VPS4B / Fold change vs veh, VPS4B / RFU, CREB1 / Fold change vs veh, CREB1 / RFU, DNAJC13 / Fold change vs veh, DNAJC13 / RFU, GNAQ / Fold change vs veh, GNAQ / RFU, CDK5R1 / Fold change vs veh, CDK5R1 / RFU, ZRANB3 / Fold change vs veh, ZRANB3 / RFU, CUL4A / Fold change vs veh, CUL4A / RFU, CCNY / Fold change vs veh, CCNY / RFU, UFL1 / Fold change vs veh, UFL1 / RFU, COG3 / Fold change vs veh, COG3 / RFU, DIAPH2 / Fold change vs veh, DIAPH2 / RFU, SKA2 / Fold change vs veh, SKA2 / RFU, AFF3 / Fold change vs veh, AFF3 / RFU, LMF1 / Fold change vs veh, LMF1 / RFU, IPO11 / Fold change vs veh, IPO11 / RFU, DFFB / Fold change vs veh, DFFB / RFU, FOXP1 / Fold change vs veh, FOXP1 / RFU, CARD8 / Fold change vs veh, CARD8 / RFU, STRN3 / Fold change vs veh, STRN3 / RFU, ADK / Fold change vs veh, ADK / RFU, RASSF2 / Fold change vs veh, RASSF2 / RFU, WIPF1 / Fold change vs veh, WIPF1 / RFU, LARP1B / Fold change vs veh, LARP1B / RFU, RASA1 / Fold change vs veh, RASA1 / RFU, RB1 / Fold change vs veh, RB1 / RFU, PPFIA1 / Fold change vs veh, PPFIA1 / RFU, MAT2A / Fold change vs veh, MAT2A / RFU, CCT5 / Fold change vs veh, CCT5 / RFU, WDR92 / Fold change vs veh, WDR92 / RFU, CUX1 / Fold change vs veh, CUX1 / RFU, TTC7A / Fold change vs veh, TTC7A / RFU, TMEM135 / Fold change vs veh, TMEM135 / RFU, DEPTOR / Fold change vs veh, DEPTOR / RFU, CPM / Fold change vs veh, CPM / RFU, DNAJB6 / Fold change vs veh, DNAJB6 / RFU, CACNA2D3 / Fold change vs veh, CACNA2D3 / RFU, DTX4 / Fold change vs veh, DTX4 / RFU, TFCP2 / Fold change vs veh, TFCP2 / RFU, GMCL1 /// GMCL1P1 / Fold change vs veh, GMCL1 /// GMCL1P1 / RFU, AEBP2 / Fold change vs veh, AEBP2 / RFU, SNHG1 /// SNORD22 /// SNORD25 /// SNORD26 /// SNORD27 /// SNORD28 /// SNORD29 /// SNORD31 / Fold change vs veh, SNHG1 /// SNORD22 /// SNORD25 /// SNORD26 /// SNORD27 /// SNORD28 /// SNORD29 /// SNORD31 / Fold change (Aza/veh), C12orf56 (ProbeSet 11735607_a_at) / Fold change (ACY-1035/veh), C12orf56 (ProbeSet 11735607_a_at) / Fold change (Aza/veh), FGFR1OP (ProbeSet 11751329_s_at) / Fold change (ACY-1035/veh), FGFR1OP (ProbeSet 11751329_s_at) / Fold change (Aza/veh), VPS36 (ProbeSet 11739960_a_at) / Fold change (ACY-1035/veh), VPS36 (ProbeSet 11739960_a_at) / RFU SYPL1 (11715823_x_at) / Fold change /veh SYPL1 (11715823_x_at) / RFU IGFBP7 (11715501_s_at) / Fold change /veh IGFBP7 (11715501_s_at) / RFU REEP3 (11722064_at) / Fold change /veh REEP3 (11722064_at) / RFU IGLL1 (11728026_x_at) / Fold change /veh IGLL1 (11728026_x_at): dose or concentration left out as unconfirmed
Conditions: ProbeSet 11721969_s_at; LIST B

Nc1ncn([C@@H]2O[C@H](CO)[C@@H](O)[C@H]2O)c(=O)n1 [azacitidine]
Fold change vs veh, BDP1: 0.86
